# Assay results: patent publication US5594024A, “Centrally actig substituted phenylazacycloalkanes” (priority 1995, dated 1997)
# Like-named read-outs stand apart in the source and are kept apart here.
# How the values were obtained:
# in vivo = assay: in vivo; design: species or system rat (male Sprague-Dawley); settings: rat
# Protocol: This is in contrast to the actions of the preferential dopamine autoreceptor antagonists (+)-AJ76 and (+)-UH232 5. The blood levels of (±)-34 were measured after oral (40 μmol/kg) and iv (5 μmol/kg) administration of the drug to male Sprague-Dawley rats (250-300 g) that were cannulated with catheters in the jugular vein and the arteria carotis. The levels of (±)-34 were measured in whole blood by means of GC-MS. […] The oral availability is considerably better than the values obtained for (+)-UH232 and (+)-AJ76 (approximately 6 and 3%, respectively).
# [1] = tested on: central dopamine receptors; settings: Hacksell et al., J. Med. Chem., 24, 1475 (1981); cited from earlier work
# D2 receptors = biological target: T1, D2 receptors (Rattus norvegicus, UniProt P61169); assay: D2 antagonist binding ([3H]-spiperone), rat striatum
# T1 construct: Preparation of rat striatal membranes for (3H)-spiperone; from tissue; host or cells: rat striatum (striatal membranes)
# T1 sequence (P61169 whole entry): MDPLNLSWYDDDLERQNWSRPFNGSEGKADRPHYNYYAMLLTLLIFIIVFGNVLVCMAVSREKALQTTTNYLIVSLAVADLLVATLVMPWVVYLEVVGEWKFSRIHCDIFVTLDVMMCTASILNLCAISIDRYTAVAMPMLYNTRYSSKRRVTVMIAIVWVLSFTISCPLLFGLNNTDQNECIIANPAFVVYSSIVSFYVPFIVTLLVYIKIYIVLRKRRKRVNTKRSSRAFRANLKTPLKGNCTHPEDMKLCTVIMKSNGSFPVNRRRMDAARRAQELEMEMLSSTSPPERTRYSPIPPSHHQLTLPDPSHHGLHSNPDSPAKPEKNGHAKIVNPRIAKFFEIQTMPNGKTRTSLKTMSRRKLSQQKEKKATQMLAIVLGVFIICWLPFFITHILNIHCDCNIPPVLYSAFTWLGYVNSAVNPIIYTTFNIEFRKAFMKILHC
# Protocol: D2 antagonist binding. Preparation of rat striatal membranes for (3H)-spiperone (specific activity 21-24 Ci/mmol) binding was carried out in a similar manner as described for D1-binding, Hyttel et al., J. Neural. Transm., 68, 171 (1987).
# IC50 values were calculated by semi-log plot and linear regression analysis.
# 5-HT receptor = assay: 5-HTP accumulation (5-HT synthesis rate) in non-pretreated rats after NSD 1015; assay type: in vivo, rat (male Sprague-Dawley)
# Protocol: observations are commented to the right. After the session the rats were
# accumulation in the NErich cortical regions and 5HTP in the limbic
# (§1) Injection volumes were 5 mL/kg.
# [2] = tested on: central dopamine receptors; assay: Locomotor activity and DA synthesis in reserpinized rats; assay type: in vivo, rat
# DA receptor [3] = assay: DA metabolism (DOPAC, HVA levels) in habituated rats; assay type: in vivo, rat (male Sprague-Dawley); settings: for response vs control in vivo at 100 µmol/kg: Rattus norvegicus, sc, 1 h
# Protocol: (§2) Footnotes Table 3. The rats were habituated to the motility meters 60 min
# The rats were immediately killed after the activity session, striata
# and limbic levels of DOPAC and 5HIAA were measured by means of HPLCEC. *p
# In the experiments with habituated rats no NSD was administered and the animals were killed one hour after drug administration. […] The levels were expressed as % of controls (DOPAC and 5-HIAA see Table 3). The in vivo brain microdialysis experiments were performed in conscious rats as described by Waters et al., Eur. J. Pharm., 187, 425-34 (1990).
# as §1
# After the activity session the rats were killed and the brain levels of HVA and DOPAC were measured (data are expressed as means ±SEM).
# 5-HT1A = biological target: T2, 5-HT1A (Rattus norvegicus, UniProt P19327); assay: 5-HT1A radioligand binding ([3H]-8-OH-DPAT); design: species or system rat (male Sprague-Dawley); settings: [3H]-8-OH-DPAT, rat cortex; read-out: in vitro binding IC50, 5HT1A
# T2 construct: the whole brain with the exception of the brainstem and cerebellum was rapidly removed; from tissue
# T2 sequence (P19327 1-422): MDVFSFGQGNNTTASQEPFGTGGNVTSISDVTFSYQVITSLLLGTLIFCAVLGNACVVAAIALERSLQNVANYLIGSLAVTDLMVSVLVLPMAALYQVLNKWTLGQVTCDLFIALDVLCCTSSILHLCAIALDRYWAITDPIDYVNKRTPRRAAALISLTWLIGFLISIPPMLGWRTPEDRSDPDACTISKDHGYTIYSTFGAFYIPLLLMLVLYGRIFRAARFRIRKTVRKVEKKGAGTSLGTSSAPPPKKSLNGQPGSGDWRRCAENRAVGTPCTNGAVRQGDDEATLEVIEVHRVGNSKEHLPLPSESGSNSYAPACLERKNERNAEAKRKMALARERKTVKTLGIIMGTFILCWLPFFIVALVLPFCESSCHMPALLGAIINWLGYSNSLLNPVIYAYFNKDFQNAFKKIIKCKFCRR
# Protocol: ^b Serotonin 5HT1A ([^3 H]-8OH-DPAT, agonist) rat cortex.
# 5-HT1A radioligand binding. Male Sprague-Dawley rats (160-225 g) were killed by decapitation and the whole brain with the exception of the brainstem and cerebellum was rapidly removed, weighed and chilled in ice-cold 0.9% NaCl. Each brain was homogenized (Ultra-Turrax, 20 s) in 10 mL ice-cold 50 mM Tris buffer (pH 8.0 at 25° C.) containing 120 mM NaCl, 4 mM CaCl2 and 4 mM MgCl2 and centrifuged at 20,000 g's at 4° C. for 10 minutes. Pellets were resuspended in 10 mL fresh buffer and preincubated for 10 minutes in a 37° C. waterbath and then recentrifuged. Final pellets were homogenized in 100 volumes (w/v) of Tris buffer (as described above) containing 10 μM pargyline. The incubation tubes were kept on ice in triplicates and received 100 μL drug solution in water (or water for total binding) and 1000 μL membrane suspension (corresponds to 10 mg original tissue). The binding experiment was initiated by addition of 100 μL of (3H)-8-OH-DPAT (specific activity 143-158 Ci/mmol) in ascorbic acid (the final incubation concentration was 1 nM (3H)-8-OH-DPAT in 0.1% ascorbic acid). After incubation for 15 minutes at 37° C. the reaction was terminated by separation of the free radioligand from bound by rapid vacuum filtration using a cell harvester equipment (O. M. Teknik, Denmark). The tubes were rinsed with 4 mL and the filters (Whatman GF/F 25 mm) were washed twice with 4 mL ice-cold 0.9% NaCl.
# The radioactivity of the filters was measured in a liquid scintillation counter (efficiency 41%) in 5 mL Picofluor®. Specific binding (70-75% of total binding) was defined as the radioactivity displaced by 10 μM 5-HT. IC50 values were calculated by semi-log plot and linear regression analysis.
# habituated rats = assay: Locomotor activity and behavior in habituated rats; assay type: in vivo, rat (male Sprague-Dawley); settings: habituated rats
# Protocol: as §2
# prior to the activity session.
# as §1
# Locomotor activity was measured in rats which were habituated 60 minutes to the activity meters before drug injection. The activity was measured for the subsequent 60 minutes and expressed as % of controls (means ±SEM, n=4).
# DA receptor [4] = assay: DOPA accumulation (DA synthesis rate) in non-pretreated rats after NSD 1015
# non-pretreated rats [5] = assay: Locomotor activity and gross behavior in non-habituated (non-pretreated) rats; settings: non-pretreated rats
# Source text: Immediately after drug administration, the rats were placed in the test cages (one rat/cage) and put into the motility meters. […] Observations of gross behavior were made throughout the activity sessions through semi-transparent mirrors.
# Animals used in the biochemical and motor activity experiments were male rats of the Sprague-Dawley strain (ALAB, Sollentuna, Sweden), weighing 200-300 g. The rats were kept 5 per cage with free access to water and food (except for the starved animals for the experiments with per oral administration, who were only allowed water the last 18 hours before testing), at least one week from arrival until used in the experiments.
# All substances to be tested were dissolved in saline immediately before use, occasionally with the addition of a few drops of glacial acetic acid and/or moderate heating in order to obtain complete dissolution. Injection volumes were 5 mL/kg.
# Analysis of variance (ANOVA) followed by Fischer's test was used for the statistical calculations.
# In vivo behavioral data was obtained with rats injected with drug and 5 minutes later put into the motility chambers for the first time. The motor activity was measured for the subsequent 30 minutes (accumulated counts/30 minutes) and expressed as % of saline treated controls.
# dopamine autoreceptors = assay: GBL-model (DA synthesis rate; presynaptic dopamine autoreceptors); assay type: in vivo, rat; settings: apomorphine […], sc; GBL 750 mg/kg, i.p.
# Source text: The effects on DOPA accumulation in the GBL-model is considered to reflect an event at the presynaptic dopamine autoreceptors (for further details, see Svensson et al., Nunyn-Schmiedeberg's Arch. Pharm., 334, 234(1986)).
# D3 = settings: Sokoloff, et al., Nature, 347 146-51 (1990); series of classical and atypical neuroleptics; cited from earlier work
# DA receptor [6] = settings: after NSD1015; Johansson et al.; cited from earlier work
# [7] = tested on: d-amphetamine-induced hyperactivity; assay: d-Amphetamine-induced hyperactivity in habituated rats; assay type: in vivo, rat; settings: test compound 14 mg/kg, sc; d-amphetamine 5 mg/kg
# non-pretreated rats [8] = settings: Johansson et al.; cited from earlier work
# DA receptor [9] = settings: no NSD1015 treatment; Johansson et al.; cited from earlier work
# [10] = comparison values, source not given; cited from earlier work
structure (smiles),measurement,setting,value
"CCCN1CCCC(c2cccc(C#N)c2)C1 (racemic) [(±)-34, 3-(3-cyanophenyl-N-n-propyl)piperidine]",half-life,in vivo; iv,~3 h
same,bioavailability,"in vivo; po, oral bioavailability",~78%
same,direct receptor agonistic effects in reserpinized rats,[1],no direct receptor agonistic effects
"CCCN1CCC[C@H](c2cccc(C#N)c2)C1 [R-(+)-34, R-(+)-3-(3-Cyanophenyl-N-n-propyl)piperidine]",affinity for D2 receptors (in words),D2 receptors; (3H)-Spiperone binding,essentially no affinity for D2 receptors
same,IC50,"D2 receptors; read-out: in vitro binding IC50, D2 -spip, [3H]-spiperone, rat striatum",100 µM
same,5-HTP acc Limbic Region,5-HT receptor; 50 po,99 ± 3 % of saline controls
same,5-HTP acc Limbic Region,5-HT receptor; 50 sc,82 ± 1 % of saline controls
same,motor activity in reserpinized rats,"[2]; 50 μmol/kg, sc, reserpine 5 mg/kg, 18 h before",6±2 counts/30 min
same,DA synthesis rate / DOPA accumulation in reserpinized rats (in words),[2]; reserpinized rats,failed to produce locomotor stimulation or to affect the DA synthesis rate in reserpinized rats
same,locomotor stimulation in reserpinized rats (in words),[2]; reserpinized rats,failed to activate the reserpinized rats
same,locomotor stimulation in reserpinized rats (in words),"[2]; reserpinized rats, listed as (R)-34",failed to produce locomotor stimulation
same,response vs control in vivo at 100 µmol/kg,DA receptor [3]; read-out: DOPAC limbic,120 ± 5%
same,response vs control in vivo at 100 µmol/kg,DA receptor [3]; read-out: DOPAC striatum,117 ± 3%
same,limbic DOPAC levels (in words),"DA receptor [3]; rat, in vivo",only weakly elevated limbic DOPAC
same,IC50,5-HT1A,14 µM
same,Behavioral observations,habituated rats; 100 μmol/kg sc,Activation
same,locomotor activity in habituated rats (in words),habituated rats,stimulates the locomotor activity in habituated rats
same,DOPA acc Cortex,DA receptor [4]; 50 po,103 ± 9 % of saline controls
same,DOPA acc Stratium,DA receptor [4]; 50 po,172 ± 8 % of saline controls
same,DOPA acc Cortex,DA receptor [4]; 50 sc,145 ± 11 % of saline controls
same,DOPA acc Stratium,DA receptor [4]; 50 sc,281 ± 11 % of saline controls
same,Gross Behavioral Observations,non-pretreated rats [5]; 50 po,No change
same,Motor Act.,"non-pretreated rats [5]; 50 po, 30 min",133 ± 14 % of saline controls
same,Gross Behavioral Observations,non-pretreated rats [5]; 50 sc,stimulat.
"CN1CCc2cccc3c2[C@H]1Cc1ccc(O)c(O)c1-3 [apomorphine, reference compound]",effect on GBL-elevated limbic and striatal DA synthesis rate,dopamine autoreceptors,completely reversed
"CCCN[C@@H]1CCc2c(OC)cccc2[C@@H]1C [(+)-AJ76, (+)-cis-1S,2R-5-methoxy-1-methyl-2-(N-n-propylamino)tetralin]",preference for the D3 site,D3,highest preference for the D3 site
same,Dopa accumulation in normal animals,DA receptor [6],raise the Dopa accumulation
same,effect on activation induced by high dose d-amphetamine,[7],clearly blocked the stimulation
same,locomotor activity (photocell motility meters),non-pretreated rats [8],increase the locomotor activity
same,levels of the DA metabolites DOPAC and HVA,DA receptor [9],raise the levels of the DA metabolites DOPAC and HVA
same,oral availability,[10],approximately 3%
"CCCN(CCC)[C@@H]1CCc2c(OC)cccc2[C@@H]1C [(+)-UH232, (+)-cis-1S,2R-5-methoxy-1-methyl-2-(N,N-di-n-propylamino)tetralin]",preference for the D3 site,D3,highest preference for the D3 site
same,Dopa accumulation in normal animals,DA receptor [6],raise the Dopa accumulation
same,locomotor activity (photocell motility meters),non-pretreated rats [8],increase the locomotor activity
same,levels of the DA metabolites DOPAC and HVA,DA receptor [9],raise the levels of the DA metabolites DOPAC and HVA
same,oral availability,[10],approximately 6%
